# Laboratory results published in article PMC4767605 (Cancer chemotherapy and pharmacology, 2016).
# Test: Phase I study: plasma pharmacokinetics of ASP9853 and docetaxel
# Assay type: in vivo, human
# Conditions: compared with reported docetaxel alone [29]
smiles,measurement,value
"CC(=O)O[C@@]12CO[C@@H]1C[C@H](O)[C@@]1(C)C(=O)[C@H](O)C3=C(C)[C@@H](OC(=O)[C@H](O)[C@@H](NC(=O)OC(C)(C)C)c4ccccc4)C[C@@](O)([C@@H](OC(=O)c4ccccc4)[C@H]21)C3(C)C [docetaxel, reference compound]",Docetaxel PK in combination with ASP9853,appeared similar to that reported for docetaxel alone
